Reference: patent publication US6582734B1, “Antimicrobial composition useful for the treatment of bovine mastitis” (Ecolab Inc., priority 2000, dated 2003)

Assays:
[1] = tested on: E. coli; assay: Effect of various acids on antimicrobial activity of the base solution (no chlorine dioxide), E. coli; format: cell-based, Escherichia coli; details: used alone at 1%
Experimental: (§1) The effect of various acids on the antimicrobial activity of the base solution was measured. No chlorine dioxide was added to the compositions. Acids were added to each sample at a concentration of 1%. Example 4 had 1% heptanoic acid and Comparative Example D had 1% lactic acid. Examples 5 and 6 utilized blends of acids. The antimicrobial activity of each was measured and compared in the following Table III.

[2] = tested on: S. aureus; assay: Effect of various acids on antimicrobial activity of the base solution (no chlorine dioxide), S. aureus; format: cell-based, Staphylococcus aureus; details: used alone at 1%
Experimental: as §1

[3] = tested on: Staphylococcus aureus (ATCC 6538); assay: Antimicrobial effect of ClO2 compositions with/without heptanoic acid, S. aureus; format: cell-based; details: no secondary antimicrobial fatty acid added
Experimental: (§2) This experiment was used to determine what affect the addition of a fatty acid, the secondary antimicrobial agent, had on the effectiveness of the compositions in killing E. Coli and S. Aureus. The secondary fatty acid used was heptanoic acid at a level of 1% in examples 1, 2 and 3. The comparative examples, A, B and C, contained no fatty acid.
(§3) Three compositions were prepared from each base solution. Sodium chlorite was added in amounts that were sufficient to form compositions having 200 ppm, 300 ppm and 400 ppm ClO2. Six compositions were prepared in all.
(§4) The compositions were then tested for the antimicrobial effect against Staphylococcus aureus and Escherichia coli. The inoculum numbers in CFU/mL were 1.1×10^7 (ATCC 6538) and 1.0×10^8 (ATCC 11229). The test temperature was 25° C. and the solution pH was 5.5. The following Table II illustrates the results obtained.

[4] = tested on: Escherichia coli (ATCC 11229); assay: Antimicrobial effect of ClO2 compositions with/without heptanoic acid, E. coli; format: cell-based; details: no secondary antimicrobial fatty acid added
Experimental: as §2, §3, §4

| Structure (SMILES) | effect against the microbes (E. coli), in words [1] | effect against the microbes (S. aureus), in words [2] | concentration level of chlorine dioxide that provided an effective antimicrobial kill of S. Aureus [3] [ppm] | concentration level of chlorine dioxide that provided an effective antimicrobial kill of E. Coli [4] [ppm] |
| --- | --- | --- | --- | --- |
| CC(O)C(=O)O (stereo not shown) [lactic acid] | does not have much of any effect | does not have much of any effect |  |  |
| [O][Cl+][O-] [chlorine dioxide] |  |  | 300 | 300 |
